Data published in patent US9913857B2, “Composition and methods of screening” (OPTIBIOTIX LIMITED, priority 2013, dated 2018).

Key:
Lactobacilli = test: Anaerobic cultures, gut bacterial groups by fluorescent in situ hybridisation: Lactobacilli; format: cell-based; set-up: Lactobacilli 24: unit not given here; settings: for Lactobacilli 24: 24 hours, anaerobic culture, inoculum 7.15; for Lactobacilli 24 hr % change: 24 hr vs inoculum
Procedure: (§1) In these experiments, anaerobic cultures were tested to evaluate the in vitro utilisation of a novel Lactobacillus reuteri galactooligosaccharide by monitoring the populations of gut bacterial groups at 24 hours using fluorescent in situ hybridisation, and short-chain fatty acid […]. Fructooligosaccharides (FOS), melibiose and raffinose were used as reference carbohydrates.

Total count = test: Anaerobic cultures, gut bacterial groups by fluorescent in situ hybridisation: total count; format: cell-based; set-up: Total count 24: unit not given here; settings: for Total count 24: 24 hours, anaerobic culture, inoculum 8.84; for Total count 24 hr % change: 24 hr vs inoculum
Procedure: as §1

Bifidobacteria = test: Anaerobic cultures, gut bacterial groups by fluorescent in situ hybridisation: Bifidobacteria; format: cell-based; set-up: Bifidobacteria 24: unit not given here; settings: for Bifidobacteria 24: 24 hours, anaerobic culture, inoculum 6.85; for Bifidobacteria 24 hr % change: 24 hr vs inoculum
Procedure: as §1

Eubacteria = test: Anaerobic cultures, gut bacterial groups by fluorescent in situ hybridisation: Eubacteria; format: cell-based; set-up: Eubacteria 24: unit not given here; settings: for Eubacteria 24: 24 hours, anaerobic culture, inoculum 8.06; for Eubacteria 24 hr % change: 24 hr vs inoculum
Procedure: as §1

E. coli = test: Anaerobic cultures, gut bacterial groups by fluorescent in situ hybridisation: E. coli; format: cell-based; set-up: E. coli 24: unit not given here; settings: for E. coli 24: 24 hours, anaerobic culture, inoculum 8.14; for E. coli 24 hr % change: 24 hr vs inoculum
Procedure: as §1

Clostridia = test: Anaerobic cultures, gut bacterial groups by fluorescent in situ hybridisation: Clostridia; format: cell-based; set-up: Clostridia 24: unit not given here; settings: for Clostridia 24: 24 hours, anaerobic culture, inoculum 7.55; for Clostridia 24 hr % change: 24 hr vs inoculum
Procedure: as §1

Bacteroides = test: Anaerobic cultures, gut bacterial groups by fluorescent in situ hybridisation: Bacteroides; format: cell-based; set-up: Bacteroides 24: unit not given here; settings: for Bacteroides 24: 24 hours, anaerobic culture, inoculum 7.98; for Bacteroides 24 hr % change: 24 hr vs inoculum
Procedure: as §1

Lactobacilli strains = test: Bacterial growth curve with lactose as growth medium; format: cell-based, Lactobacillus; settings: around 13 hours, from approximately 6.5, L. plantarum, L. casei, L. salivarius, L. rhanmosus, L. delbrueckii
Procedure: Bacterial growth curve determination was undertaken by sampling cultures at 0 h, 3 h, 5 h, 8 and 24 h intervals using a 100 μL of dilution series of culture in 900 μL PBS. 20 μL of each series was spread onto a jar and with a negative control and growth assessed.
Bacterial count of several of the strains was assessed by using 0.1% lactose as the growth medium.
Bacterial count of several of the strains was assessed by using 5% lactose as the growth medium. FIGS. 2A-2G show the bacterial count over time using 5% lactose as a growth medium for L. plantarum, L. casei, L. salivarius, L. delbrueckii, L. rhanmosus, L. acidophilus and L. helveticus.

SMILES | Lactobacilli 24 (Lactobacilli) | Lactobacilli 24 hr % change (Lactobacilli) [%] | Total count 24 (Total count) | Total count 24 hr % change (Total count) [%] | Bifidobacteria 24 (Bifidobacteria) | Bifidobacteria 24 hr % change (Bifidobacteria) [%] | Eubacteria 24 (Eubacteria) | Eubacteria 24 hr % change (Eubacteria) [%] | E. coli 24 (E. coli) | E. coli 24 hr % change (E. coli) [%] | Clostridia 24 (Clostridia) | Clostridia 24 hr % change (Clostridia) [%] | Bacteroides 24 (Bacteroides) | Bacteroides 24 hr % change (Bacteroides) [%] | bacterial count (Lactobacilli strains; 0.1% lactose as growth medium, L. fermentum) | bacterial count (Lactobacilli strains; 5% lactose as growth medium, L. acidophilus, L. helveticus)
OC[C@H]1O[C@H](OC[C@H]2O[C@H](O[C@]3(CO)O[C@H](CO)[C@@H](O)[C@@H]3O)[C@H](O)[C@@H](O)[C@@H]2O)[C@H](O)[C@@H](O)[C@H]1O [Raffinose, raffinose] | 7.45 | 104 | 9.19 | 104 | 7.69 | 112 | 8.69 | 108 | 8.03 | 99 | 7.81 | 103 | 8.08 | 101 | – | –
OC[C@H]1O[C@@H](O[C@H]2[C@H](O)[C@@H](O)C(O)O[C@@H]2CO)[C@H](O)[C@@H](O)[C@H]1O (stereo partly drawn) [lactose] | – | – | – | – | – | – | – | – | – | – | – | – | – | – | over 9.5 log 10 CFU/ml | over 9.5 log 10 CFU/ml
OC[C@H]1O[C@H](OCC2O[C@@H](O)[C@H](O)[C@@H](O)[C@@H]2O)[C@H](O)[C@@H](O)[C@H]1O (stereo partly drawn) [Melibiose, melibiose] | 7.43 | 104 | 9.14 | 103 | 7.33 | 107 | 7.84 | 97 | 7.66 | 94 | 7.65 | 101 | 7.9 | 99 | – | –
